Entries after “also recorded” stand apart in the source; their conditions may differ.

The target of the first assay is protein kinase. The experiment in a line: HTS ATP-utilizing enzyme assay, off-chip mobility-shift format (Caliper HTS 250). Type of assay: biochemical, human. The settings on record: kinase(s) for which the compound exhibits protein kinase inhibitory activity; test compound 10 μM; active = greater than three-sigma from the mean activity of inactive compounds. The method, boiled down:
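Kinase reactions ran 2.5 h at 20 to 22 °C with test compound at 10 μM, in a HEPES pH 7.5 master buffer containing Triton X-100 and BSA. Peptide substrate and phosphorylated product separated by mobility shift; inhibition normalized to DMSO (0%) and EDTA (100%) controls, with three-sigma thresholds for hits.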
In the case of `Nc1c(Cl)cc(-n2c(S)nnc2-c2ccccc2)cc1Cl` [4-(4-amino-3,5-dichlorophenyl)-5-phenyl-4H-1,2,4-triazole-3-thiol], the Kinase entry is “GSK3-β; also recorded: GSK3-α; also recorded: CDK2-cyclinE”.

Regarding `CCc1ccccc1NC(=O)CSc1nnc(COc2ccc(Cl)cc2)n1C`, the Kinase entry is “PDGFRR-α”. Consider `CCc1ccc(OCc2nnc(SCC#N)n2CC)cc1` [2-(4-ethyl-5-((4-ethylphenoxy)methyl)-4H-1,2,4-triazol-3-ylthio)acetonitrile], for which the Kinase result is on record as “AURORA-A”. The same measure, in the same setting: the value for `N#CCSc1nnc(COc2cccc3ccccc23)n1-c1ccccc1` was “MAPKAPK-2 and CDK1 and CDK5”. Consider `Cn1c(CNc2nc(-c3ccccc3)cs2)nnc1SCC(N)=O`, for which the Kinase result is listed as “FYN”. Regarding `COc1ccccc1-n1c(SCC(=O)O)nnc1-c1cccnc1`, the Kinase entry is “AURORA-A”. `CCOC(=O)c1sc(NC(=O)CSc2nnc(-c3ccc(OC)cc3)n2CCOC)nc1C`: the Kinase result was “GSK3-β; also recorded: GSK3-α”. Regarding `CCn1c(CNc2cccc(Cl)c2)nnc1SCC#N`, the Kinase result is “CDK2-cyclinA”.

With `CCn1c(SCC(=O)Nc2ccccc2)nnc1-c1ccc(O)cc1`, the Kinase result is listed as “CHEK2”.

Consider `COc1cc(NC(=O)c2ccco2)c(OC)cc1NC(=O)CSc1nnc(-c2cccs2)n1C`, for which the Kinase entry is reported as “PDGFRR-α”. In the case of `CCn1c(CNc2ccc(C)cc2)nnc1SCC(=O)Nc1ccccc1OC`, the Kinase entry is “AURORA-A”.

On to `COc1ccc(OCc2nnc(SCC(=O)N3CCCc4ccccc43)n2-c2ccc(C)cc2)cc1`, for which the Kinase result is “LCK”.

Turning to `COc1ccc(NCc2nnc(SCC(=O)Nc3ccccc3C)n2C)cc1`, the Kinase entry was “INSR and CHEK1 and FYN”.

Take `Cc1ccc(NCc2nnc(SCC(=O)N3c4ccccc4Sc4ccccc43)n2C)cc1`: the Kinase entry is “DAPK1”. With `COC(=O)c1sc(NC(=O)CSc2nnc(-c3ccc(NS(C)(=O)=O)cc3)n2C)nc1C`, the Kinase entry is recorded as “GSK3-β; also recorded: GSK3-α”. Turning to `COc1cc(-c2nnc(SCC(=O)Nc3cc([N+](=O)[O-])ccc3C)n2C)cc(OC)c1OC`, the Kinase result is given as “MAPKAPK-2”. Take `CCn1c(COc2ccc(OC)cc2)nnc1SCC(=O)O`: the Kinase result is given as “AKT1”. Consider `Cc1ccc(S(=O)(=O)Nc2ccc(-c3nnc(SCC(=O)N4CCCCC4)n3C)cc2)cc1`, for which the Kinase result is listed as “AKT1”.

With `Cc1ccc(-n2c(S)nnc2CNc2cccc(Cl)c2)cc1` [5-((3-chlorophenylamino)methyl)-4-p-tolyl-4H-1,2,4-triazole-3-thiol], the Kinase entry is “GSK3-β; also recorded: GSK3-α”. Still for that read-out and setting: the value for `Cc1cc(NC(=O)CSc2nnc(-c3ccc(O)cc3)n2C)ccc1NC(=O)c1ccccc1C` was “GSK3-β; also recorded: GSK3-α”; that for `CN(C)CCCn1c(SCC(=O)NCc2ccco2)nnc1-c1ccncc1` was “PDGFRR-α and PAK2”. On to `COc1ccccc1-n1c(CNc2c(C)cccc2C)nnc1SCC(=O)Nc1cccc(O)c1`, for which the Kinase entry was “CHEK2”. For `Cc1cc(NC(=O)CSc2nnc(-c3cc4ccccc4cc3O)n2C)no1`, the Kinase entry is “AURORA-A and FYN”.

For the compound `COc1ccc(OCc2nnc(SC(C)C(=O)Nc3ccccc3C)n2C)cc1` (stereo not drawn), the Kinase result was “PDGFRR-α”. Regarding `CCCOc1ccc(CNC(=O)CSc2nnc(-c3ccc(OC)c(OC)c3)n2C)cc1`, the Kinase entry is on record as “AURORA-A; also recorded: DYRK2”.

Turning to `COc1cccc(OCc2nnc(SCC(=O)O)n2Cc2ccccc2)c1`, the Kinase entry is “MSK1”. The same measure, in the same setting: the value for `Cn1c(SCC(=O)Nc2cccc(O)c2)nnc1-c1ccc(NS(C)(=O)=O)cc1` was “AURORA-A”. Take `Cc1nnc(SCC(=O)c2ccccc2)[nH]1` [2-(5-methyl-4H-1,2,4-triazol-3-ylthio)-1-phenylethanone]: the Kinase result is on record as “GSK3-α; also recorded: GSK3-β; also recorded: DYRK2”. The same measure, in the same setting: with `CCOc1cc(NC(=O)c2cccs2)c(OCC)cc1NC(=O)CSc1nnc(-c2ccc(O)cc2)n1C` the entry was “PDGFRR-α”; with `CCn1c(SCC(=O)N(C(C)C)C(C)C)nnc1-c1cc2ccccc2cc1O`, “c-TAK1”. Same read-out and setting: the value for `Cn1c(S)nnc1COc1ccc2ccccc2c1` [4-methyl-5-((naphthalen-2-yloxy)methyl)-4H-1,2,4-triazole-3-thiol] was “GSK3-α”; that for `COc1ccc(-c2nnc(SCC(C)=O)n2-c2ccccc2)cc1` [1-(5-(4-methoxyphenyl)-4-phenyl-4H-1,2,4-triazol-3-ylthio)propan-2-one] was “INSR”. For `COCCn1c(SCC(=O)Nc2ccccc2C(=O)OC)nnc1-c1cc2ccccc2cc1O`, the Kinase entry is recorded as “AURORA-A; also recorded: DAPK1”. Turning to `Cn1c(SCC(=O)NCc2ccco2)nnc1-c1ccc(NC(=O)c2ccccc2)cc1`, the Kinase result is “CHEK2”. For `CCc1cccc(C)c1NC(=O)CSc1nnc(CNc2ccc(Cl)cc2)n1CC`, the Kinase result is reported as “LCK”.

The same assay, now with this note: test compound 10 μM; active = activity greater than three-sigma from the mean of the predominately inactive population for that enzyme.
As to `CCn1c(SCc2ccc(C(C)(C)C)cc2)nnc1-c1ccncc1` [4-(5-(4-tert-butylbenzylthio)-4-ethyl-4H-1,2,4-triazol-3-yl)pyridine], the “protein kinase against which the compound exhibits inhibitory activity (Table 3)” value is listed as “MAPKAPK-2”.

Turning to `COc1ccc(-c2nnc(SCC(=O)NNC(=O)c3ccccc3O)n2-c2ccccc2)cc1OC`, the “protein kinase against which the compound exhibits inhibitory activity (Table 3)” value was “FYN and FLT-3”.

Turning to `Cc1ccc(NCc2nnc(SCc3ccc(C(C)(C)C)cc3)n2-c2ccc(C)cc2)cc1`, the “protein kinase against which the compound exhibits inhibitory activity (Table 3)” value is “AURORA-A and SYK”.

`CN(C)CCCSc1nnc(-c2ccc([N+](=O)[O-])cc2)[nH]1` [N,N-dimethyl-3-(5-(4-nitrophenyl)-4H-1,2,4-triazol-3-ylthio)propan-1-amine]: the “protein kinase against which the compound exhibits inhibitory activity (Table 3)” value is given as “c-TAK1”. On to `c1ccc(CSc2nnc(-c3ccncc3)n2-c2ccccc2)cc1` [4-(5-(benzylthio)-4-phenyl-4H-1,2,4-triazol-3-yl)pyridine], for which the “protein kinase against which the compound exhibits inhibitory activity (Table 3)” value is listed as “AURORA-A”. In the case of `Clc1cccc(-n2c(SCc3ccccc3)nnc2-c2ccncc2)c1` [4-(5-(benzylthio)-4-(3-chlorophenyl)-4H-1,2,4-triazol-3-yl)pyridine], the “protein kinase against which the compound exhibits inhibitory activity (Table 3)” value was “GSK3-β and AURORA-A and CDK1”. Turning to `Clc1cccc(-c2nnc(SCc3ccccc3)[nH]2)c1` [3-(benzylthio)-5-(3-chlorophenyl)-4H-1,2,4-triazole], the “protein kinase against which the compound exhibits inhibitory activity (Table 3)” value is “AURORA-A; also recorded: c-TAK1; also recorded: FLT-3”. Same read-out and setting: with `COc1ccc(NCc2nnc(SCc3ccc(Cl)cc3)n2-c2ccccc2)cc1` the entry was “PDGFRR-α and FYN”; with `Fc1ccc(NCc2nnc(SCCN3CCOCC3)n2-c2ccccc2)cc1`, “CDK2-cyclinA”; with `CCc1nnc(SCc2ccccc2)n1Cc1ccc2c(c1)OCO2` [4-(benzo[d][1,3]dioxol-5-ylmethyl)-3-(benzylthio)-5-ethyl-4H-1,2,4-triazole], “GSK3-β; also recorded: GSK3-α”.

Turning to `Oc1ccccc1-c1nnc(SCc2ccc(F)cc2)n1Cc1ccccc1` [2-(4-benzyl-5-(4-fluorobenzylthio)-4H-1,2,4-triazol-3-yl)phenol], the “protein kinase against which the compound exhibits inhibitory activity (Table 3)” value was “AURORA-A”. For `c1cncc(-c2nnc(SCC3CC3)[nH]2)c1` [3-(5-(cyclopropylmethylthio)-4H-1,2,4-triazol-3-yl)pyridine], the “protein kinase against which the compound exhibits inhibitory activity (Table 3)” value is given as “FLT-3; also recorded: AURORA-A”. For `COCCCn1c(SCc2ccc(C(C)(C)C)cc2)nnc1-c1ccncc1`, the “protein kinase against which the compound exhibits inhibitory activity (Table 3)” value is reported as “DYRK2”. Turning to `Clc1ccc(-c2nnc(SCCN3CCOCC3)[nH]2)cc1Cl` [4-(2-(5-(3,4-dichlorophenyl)-4H-1,2,4-triazol-3-ylthio)ethyl)morpholine], the “protein kinase against which the compound exhibits inhibitory activity (Table 3)” value is “AURORA-A; also recorded: GSK3-α; also recorded: GSK3-β”. `CCn1c(CNc2ccc(OC)cc2)nnc1SCc1ccc(Cl)cc1`: the “protein kinase against which the compound exhibits inhibitory activity (Table 3)” value is “PDGFRR-α and FYN(”. On the same count and under the same terms, the value for `COc1cccc(OCc2nnc(SC)n2C)c1` [3-((3-methoxyphenoxy)methyl)-4-methyl-5-(methylthio)-4H-1,2,4-triazole] was “AURORA-A”; that for `Cc1cccc(-c2nnc(SCc3cccc4ccccc34)[nH]2)c1` [3-(naphthalen-1-ylmethylthio)-5-m-tolyl-4H-1,2,4-triazole] was “AURORA-A”; that for `OCCSc1nnc(-c2ccccc2)[nH]1` [2-(5-phenyl-4H-1,2,4-triazol-3-ylthio)ethanol] was “FLT-3; also recorded: AURORA-A; also recorded: DYRK2”. With `OCC(O)CSc1nnc(-c2cccc(C(F)(F)F)c2)[nH]1` (stereo not drawn) [3-(5-(3-(trifluoromethyl)phenyl)-4H-1,2,4-triazol-3-ylthio)propane-1,2-diol], the “protein kinase against which the compound exhibits inhibitory activity (Table 3)” value is on record as “AURORA-A; also recorded: FLT-3; also recorded: CHEK2”. In the case of `O=S(=O)(CCSc1nnc(Cc2ccccc2)n1-c1ccccc1)Nc1ccccc1` [2-(5-benzyl-4-phenyl-4H-1,2,4-triazol-3-ylthio)-N-phenylethanesulfonamide], the “protein kinase against which the compound exhibits inhibitory activity (Table 3)” value is given as “AKT2”. Still for that read-out and setting: with `COc1ccccc1-n1c(SCCC2COCCN2)nnc1-c1cccc(Cl)c1` (stereo not drawn) the entry was “ROCK2”; with `CCn1c(COc2ccc(Cl)c(C)c2)nnc1SC(C)C`, “AKT1”. For `COc1ccc(NCc2nnc(SCC(=O)NNC(=O)c3ccc(C)cc3)n2C)cc1`, the “protein kinase against which the compound exhibits inhibitory activity (Table 3)” value is “PDGFRR-α and FYN and FLT-3”. The same measure, in the same setting: the value for `Cc1nnc(SCc2ccccc2)n1Cc1ccc(Cl)c(Cl)c1` [3-(benzylthio)-4-(3,4-dichlorobenzyl)-5-methyl-4H-1,2,4-triazole] was “GSK3-α; also recorded: GSK3-β; also recorded: c-TAK1”; that for `COc1ccccc1-n1c(SCC(=O)Nc2ccccc2)nnc1-c1ccccc1O` was “AURORA-A”.

Source of the values: patent publication US20050288347A1, “Certain triazole-based compounds, compositions, and uses thereof” (priority 2004, published 2005).
